Test results reported in patent publication US20040244713A1, “Method for treating animals or masses of water with compositions comprising quinone compounds” (priority 2003, published 2004).
Like-named read-outs stand apart in the source and are kept apart here. Marks after values point to notes of the source that are not given here.

How the values were obtained:
[1] = system: Haemoncus contortus larvae (L1); assay: Motility of Haemoncus contortus larvae (L1); format: in vivo
Procedure: (§1) The effect of menadione nicotinamide bisulfite on Haemoncus contortus is assessed by measuring the motility of the larvae (L1), Table 2, and the faecal count of the larvae (L3), Table 2.1, according to the methodology described in Fetterer R. et Al. (1989) Vet. Parasitol. 32:181-189.

[2] = system: Haemoncus contortus larvae (L3); assay: Faecal count of Haemoncus contortus larvae (L3); format: in vivo
Procedure: as §1

[3] = system: Isochris Galbana; assay: Toxicity test LC50 on Isochris Galbana; format: cell-based
Description: (§16) The table below lists the results of the toxicity tests performed on fish fauna and on some phyto- and zooplankton species considered among the possible targets of the claimed method.

[4] = system: Artemia Salina; assay: Toxicity test LC50 on Artemia Salina; conditions: in vivo
Description: as §16

[5] = system: Rainbow trout; assay: Toxicity test LC50 on fish fauna, Rainbow trout; format: in vivo
Description: as §16

[6] = Hydrolysis test performed in darkness; format: physicochemical
[7] = Photodegradability in sunlight and UV light; format: physicochemical; conditions: 10-ppm solution in drinking water (pH 6.5-7.5)
Procedure: In a fully similar manner, the same behaviour is confirmed if one assesses the photodegradability in sunlight and UV light (the radiation test was performed on a 10-ppm solution in drinking water (pH 6.5-7.5)

[8] = Biodegradability OECD 301 A (92/69/EEC C4-A); format: physicochemical
Description: The degradability of a substance is normally a factor that is impossible to predict on a structural basis. […] On the basis of the available data related to the compounds that are chemically more similar to the derivatives of menadione described here, one could have expected a degradability comprised between the 0% (percentage calculated on the initial mass of product expressed as mg/l) of menadione (2-methyl-1,4-naphthalenedione) and the 17% (assessed after 28 days) of menadione sodium bisulfite (where the calculation was performed by using the OECD301 A guidelines annexed to EEC directive 92/69/EEC C4-A).
Finally, biodegradability according to the 92/69/EEC C4-A regulation was also assessed.

[9] = Procedure: As noted repeatedly, the water solubility of the biocidal candidate is an essential requirement for advantageous use in biological water control. Accordingly, this property was evaluated for four of the compounds that are representative of the chemical classes to which the biocides currently in use belong.
[10] = system: Pseudomonas elongata NCIMB 1141; assay: Agar diffusion test (Kirby-Bauer); format: cell-based; conditions: MNB (100 μg) per disk, 24 hours in darkness
Procedure: (§2) a) Kirby-Bauer test performed after 24 hours in darkness.
(§3) In this test, paper disks impregnated with known quantities of MNB are placed on the surface of agar disks injected at confluence with a standard suspension of a bacterial strain. The antibacterial agent diffuses on the plate, causing the formation of an area of inhibition of the growth of the bacterial strain around the disk with the inhibiting quantity of the agent. By virtue of a calibration curve it was possible to classify the isolates into susceptible, moderately resistant, and resistant.
(§4) The method being considered, therefore, assesses the effectiveness of a single quantity of agent ([…]) against two control strains of Gram-positive and Gram-negative aerobic bacteria (Gram-negative: Pseudomonas elongata NCIMB 1141; Gram-positive: Staphylococcus aureus ATCC 25923).
(§5) The results are given in the table and represent the size of the inhibition halos in millimetres after contact with 100 μg of MNB.

[11] = system: Staphylococcus aureus ATCC 25923; assay: Agar diffusion test (Kirby-Bauer); format: cell-based; conditions: MNB (100 μg) per disk, 24 hours in darkness
Procedure: as §2, §3, §4, §5

[12] = system: Aeromonas sp. CH34; assay: MIC and MBC determination; format: cell-based; conditions: 24 hours in darkness, tested range 0.12-64 mg/l
Procedure: (§6) Tested concentration range: 0.12-64 mg/l.

[13] = system: Bacillus licheniformis NCIMB 1525; assay: MIC and MBC determination; format: cell-based; conditions: 24 hours in darkness, tested range 0.12-64 mg/l
Procedure: as §6

[14] = system: Bacillus subtilis; assay: MIC and MBC determination; format: cell-based; conditions: Bacillus subtilis ATCC 25923; 24 hours in darkness; tested range 0.12-64 mg/l
Procedure: as §6

[15] = system: Corynebacterium sp. CT15; assay: MIC and MBC determination; format: cell-based; conditions: 24 hours in darkness, tested range 0.12-64 mg/l
Procedure: as §6

[16] = system: Escherichia coli ATCC 25922; assay: MIC and MBC determination; format: cell-based; conditions: 24 hours in darkness, tested range 0.12-64 mg/l
Procedure: as §6

[17] = system: Micrococcus sp. AD10; assay: MIC and MBC determination; format: cell-based; conditions: 24 hours in darkness, tested range 0.12-64 mg/l
Procedure: as §6

[18] = system: Micrococcus sp. AE11; assay: MIC and MBC determination; format: cell-based; conditions: 24 hours in darkness, tested range 0.12-64 mg/l
Procedure: as §6

[19] = system: Pseudomonas aeruginosa ATCC 10145; assay: MIC and MBC determination; format: cell-based; conditions: 24 hours in darkness, tested range 0.12-64 mg/l
Procedure: as §6

[20] = system: Pseudomonas elongata NCIMB 1141; assay: MIC and MBC determination; format: cell-based; conditions: 24 hours in darkness, tested range 0.12-64 mg/l
Procedure: as §6

[21] = system: Pseudomonas putida NCIMB 1960; assay: MIC and MBC determination; format: cell-based; conditions: 24 hours in darkness, tested range 0.12-64 mg/l
Procedure: as §6

[22] = system: Staphylococcus aureus ATCC 25923; assay: MIC and MBC determination; format: cell-based; conditions: 24 hours in darkness, tested range 0.12-64 mg/l
Procedure: as §6

[23] = system: Vibrio parahaemolyticus AD19; assay: MIC and MBC determination; format: cell-based; conditions: 24 hours in darkness, tested range 0.12-64 mg/l
Procedure: as §6

[24] = system: Vibrio sp. AD18; conditions: 24 hours in darkness, tested range 0.12-64 mg/l
Procedure: (§7) The MNB compound was tested in particular for its antibacterial activity on pathogenic and non-pathogenic organisms. The biocidal activity of MNB was estimated by using two separate methods: the agar diffusion test (Kirby-Bauer method) and the determination of the Minimum Inhibiting Concentration (MIC) and the Minimum Bactericidal Concentration (MBC).
(§8) b) Test for determining the MIC (minimum inhibiting concentration) and the MBC (minimum bactericidal concentration) of MNB with respect to pathogenic organisms after the colonies were kept in darkness for 24 hours. Tested concentration range: 0.12-64 mg/l. The tested strains were environmental isolates identified by means of an internal number or were standard strains identified by means of the ATCC or MNCIB filing number.

[25] = system: Vibrio sp. AE7; conditions: 24 hours in darkness, tested range 0.12-64 mg/l
Procedure: as §7, §8

[26] = system: Vibrio sp. CH45; conditions: 24 hours in darkness, tested range 0.12-64 mg/l
Procedure: as §7, §8

[27] = system: Eurytemora Affinis; assay: Toxicity test LC50 on Eurytemora Affinis; conditions: in vivo
Description: as §16

[28] = system: Dreissena Polimorfa Larvae; assay: Toxicity test LC50 on Dreissena Polimorfa larvae; conditions: in vivo
Description: as §16

[29] = system: Eimeria acervulina; assay: Coccid infection in chicken, Eimeria acervulina; format: in vivo; conditions: chickens (Ross males), 250 ppm of MPB in feed, inoculated orally with 100,000 oocysts; fecal count 16 hours before killing; n=6
Procedure: (§9) The effect of a preparation comprising menadione dimethylpirymidinol bisulfite (MPB) on coccid infection in chicken was assessed.
(§10) Composition of the preparation (per Kg of final preparation):
(§11) MPB coated with vegetable hydrogenated fatty acids (1:1 inclusion ratio) 500 g,
(§12) This preparation was added in the amount of 1 Kg per ton of feed, so that the final concentration of MPB was equal to 250 ppm of MPB (equivalent to approximately 109 ppm of menadione). Since a chicken eats on average 70-80 grams of feed per day, the daily dose of MPB was equal to approximately 17-20 mg/animal per day.
(§13) The chickens (Ross males) were raised in individual cages for four weeks with a commercial feed in comparison with the same feed integrated with said preparation at the dose of 1 Kg/ton.
(§14) At the end of the third week, the chickens were weighed and divided into uniform weight groups within each treatment and were orally inoculated (1 ml) respectively with 50,000 oocysts of Eimeria tenella or 100,000 oocysts of E. acervulina. The fecal count of the oocysts was performed (method described in Hodgson J. N. 1970, Exp. Parasitol. 28:99-102) 16 hours before killing the animals.
(§15) The coccidiostatic effect is confirmed by the score of the lesions six days after inoculation (method described by Johson J. et Al. 1970, Exp. Parasitol. 28:30-36).

[30] = system: Eimeria tenella; assay: Coccid infection in chicken, Eimeria tenella; format: in vivo; conditions: chickens (Ross males), 250 ppm of MPB in feed, inoculated orally with 50,000 oocysts; fecal count 16 hours before killing; n=6
Procedure: as §9, §10, §11, §12, §13, §14, §15

CC1(S(=O)(=O)O)CC(=O)c2ccccc2C1=O.NC(=O)c1cccnc1 (stereo not shown) [MNB, menadione nicotinamide bisulfite]
% of motile larvae (L1) ([1]; 1 μg of MNB/ml): 70% | % of motile larvae (L1) ([1]; 10 μg of MNB/ml): 43% | % of motile larvae (L1) ([1]; 100 μg of MNB/ml): 3% | Total no. of larvae (L3) ([2]; 1 μg of MNB/ml): 650 | Total no. of larvae (L3) ([2]; 10 μg of MNB/ml): 310 | Total no. of larvae (L3) ([2]; 100 μg of MNB/ml): 35 | LC50 Isochris Galbana [3]: 0.5 ppm | LC50 Artemia Salina [4]: 5 ppm | LC50 Rainbow trout (assessed on 96 h) [5]: 0.4 ppm | ½ LIFE, hydrolysis ([6]; PH 6.8, in darkness): 48 h | ½ LIFE, hydrolysis ([6]; PH 9, in darkness): <3 h | Light exp. Total Degr. [7]: 48 h | Light exp. ½ life [7]: 10 h | degradability compared with that of MSB [8]: as much as eight times higher | % biodegr. OECD 301 A ([8]; after 7 days): 37% | % biodegr. OECD 301 A ([8]; after 14 days): 37% | % biodegr. OECD 301 A ([8]; after 28 days): 40% | Sol. in H2O [9]: 19 gr/l | size of the inhibition halos [10]: 20 mm | size of the inhibition halos [11]: 20 mm | MBC [12]: 64 µg/mL | MIC [12]: 32 µg/mL | MBC [13]: 32 µg/mL | MIC [13]: 16 µg/mL | MBC [14]: 32 µg/mL | MIC [14]: 12 µg/mL | MBC [15]: 16 µg/mL | MIC [15]: 8 µg/mL | MBC [16]: >64 µg/mL | MIC [16]: >64 µg/mL | MBC [17]: 32 µg/mL | MIC [17]: 16 µg/mL | MBC [18]: 16 µg/mL | MIC [18]: 8 µg/mL | MBC [19]: >64 µg/mL | MIC [19]: >64 µg/mL | MBC [20]: 16 µg/mL | MIC [20]: 8 µg/mL | MBC [21]: >64 µg/mL | MIC [21]: >64 µg/mL | MBC [22]: 16 µg/mL | MIC [22]: 8 µg/mL | MBC [23]: 4 µg/mL | MIC [23]: 1 µg/mL | MBC [24]: 32 µg/mL | MIC [24]: 16 µg/mL | MBC [25]: 32 to 64 µg/mL | MIC [25]: 16 to 32 µg/mL | MBC [26]: 16 µg/mL | MIC [26]: 16 µg/mL | LC50 Eurytemora Affinis [27]: 5 ppm | LC50 Dreissena Polimorfa Larvae [28]: 1 ppm

CC1(S(=O)(=O)O)CC(=O)c2ccccc2C1=O.Cc1cc(C)[nH]c(=O)n1 (stereo not shown) [MPB, menadione dimethylpirymidinol bisulfite]
LC50 Isochris Galbana [3]: 0.5 ppm | LC50 Artemia Salina [4]: 5 ppm | LC50 Rainbow trout (assessed on 96 h) [5]: 0.4 ppm | ½ LIFE, hydrolysis ([6]; PH 6.8, in darkness): 48 h | ½ LIFE, hydrolysis ([6]; PH 9, in darkness): <3 h | Light exp. Total Degr. [7]: 48 h | Light exp. ½ life [7]: 10 h | degradability compared with that of MSB ([8]; 7 days after the beginning of the test): as much as eight times higher | % biodegr. OECD 301 A ([8]; after 7 days): 37% | % biodegr. OECD 301 A ([8]; after 14 days): 37% | % biodegr. OECD 301 A ([8]; after 28 days): 40% | Excretion of oocysts, Eimeria acervulina [29]: 5.9 ± 0.8^a ×10^8 | Excretion of oocysts, Eimeria tenella [30]: 0.44 ± 0.05^a ×10^8 | LC50 Eurytemora Affinis [27]: 5 ppm | LC50 Dreissena Polimorfa Larvae [28]: 1 ppm
